Measured values taken from patent publication US20260000698A1 (priority 2022, published 2026).
Marks after values point to notes of the source that are not given here.

What was measured:
[1] = Parallel artificial membrane permeability assay (PAMPA); format: in vitro ADME
Description: Parallel artificial membrane permeability assay (PAMPA).^5 The membrane permeability of selected compounds was evaluated using the Corning® BioCoat™ Pre-coated PAMPA Plate System (Corning 353015; Glendale, AZ, USA). The pre-coated plate assembly, which was stored at −20° C., was taken to thaw for 30 min at room temperature. The permeability assay was carried out in accordance with the manufacturer's protocol. Briefly, the 96-well filter plate, pre-coated with lipids, was used as the permeation acceptor and a matching 96 well receiver plate was used as the permeation donor. Compound solutions were prepared by diluting the 10 mmol/L DMSO stock solutions with 10% methanol in DPBS to a final concentration of […]. The compound solutions were added to the wells (300 μL/well) of the receiver plate and DPBS with 10% methanol was added to the wells (200 μL/well) of the pre-coated filter plate. The filter plate was then coupled with the receiver plate and the plate assembly was incubated at 25° C. without agitation for 5 h. At the end of the incubation, the plate was separated and the final concentrations of compounds in both donor wells and acceptor wells were analyzed using LC-MS/MS. Permeability of a compound was calculated using the Eq. (1):
where A=filter area (0.3 cm^2), VD=donor well volume (0.3 mL), VA=acceptor well volume (0.2 mL), t=incubation time (seconds), CA(t)=compound concentration in acceptor well at time t, CD(t)=compound concentration in donor well at time t, and Ceq was calculated using the Eq. (2): […]
A cutoff criterion of Pe value at […] was used to classify the compounds into high and low permeability according to the literature report of this PAMPA plate system^1.

[2] = tested on: SARS-CoV-2 isolate USA-WA1/2020; conditions: inhibition at 50 μM
A549/ACE2/TMPRSS2 cells = assay: in vitro; conditions: cell viability at 50 μM
Description: Percentage of infected cells was determined by dividing the number of infected cells by the total number of cells per well. The percentage of infected cells and total number of cells for each treatment was plotted into GraphPad prism (GraphPad Software; San Diego, CA, USA) to perform a non-linear regression analysis, generate infectious dose-response curves and to calculate EC50 and CC50 values.
Viability assays for the non-infected A549/ACE2/TMPRSS2 cells were performed using the 3-(4,5-dimethylthiazol-2-yl)-5-(3-carboxymethoxyphenyl)-2-(4-sulfophenyl)-2H-tetrazolium (MTS)-based tetrazolium reduction CellTiter 96 Aqueous Non-Radioactive cell proliferation assay (Promega G5430; Madison, WI) as described. Assays were conducted using parallel plates to those used in the immunofluorescence assay. Experimental details (cell line, number of cells seeded and incubation time) corresponded to those used in the immunofluorescence assay above. The data obtained were used to calculate the CC50 value using GraphPad Prism software.

PRMT3 = molecular target: T1, PRMT3 (Homo sapiens, UniProt O60678); assay: Human MTase screening: PRMT3; format: biochemical
T1 construct: purchased BPS Bioscience
Description: (§1) Assay conditions. The human methyltransferase inhibition assays were performed at BPS Bioscience (San Diego, CA, USA). All of the enzymatic reactions were conducted in duplicate at room temperature for 60-960 min in a 50 μL mixture containing proper methyltransferase assay buffer, S-adenosylmethionine (SAM), enzyme, and the test compound. These 50 μL reactions were carried out in wells of a substrate pre-coated plate. First, enzyme and inhibitor were added to assay wells and preincubated for 30 min at room temperature, then SAM was added to start the reaction. Final DMSO concentration was 1% in all reactions.
(§2) After enzymatic reactions, the reaction mixtures were discarded and each of the wells was washed three times with TBST buffer, and slowly shaken with Blocking Buffer for 10 min. Wells were emptied, and 100 μL of diluted primary antibody was added. The plate was then slowly shaken for 60 minutes at room temperature. […] Immediately, the luminescence of the samples was measured in a BioTek Synergy™ 2 (Winooski, VT, USA) microplate reader using Gen5 software.
(§3) Data analysis. […] The luminescence data/alpha counts were analyzed and compared. […] The percent activity in the presence of each compound was calculated according to the following equation: % activity=(C−C0)/(Ce−C0), where C=the luminescence/alpha counts in the presence of the compound.

[3] = Plasma stability assay, mouse plasma; format: in vitro ADME, mouse (CD-1)
Description: Plasma stability assay. The plasma stability assay was performed in triplicate by incubating each selected compound (1 μmol/L final concentration) in normal mouse (CD-1) or human plasma (Innovative Research; Novi, MI, USA) diluted to 80% with 0.1 mol/L potassium phosphate buffer (pH 7.4) at 37° C. At 0, 1, 3, 6, and 24 h, a 50 μL aliquot of the plasma mixture was taken and quenched with 150 μL of acetonitrile containing 0.1% formic acid. The samples were then vortexed and centrifuged at 15,000 rpm (Eppendorf centrifuge 5424R; Enfield, CT, USA) for 5 min. The supernatants were collected and analyzed by LC-MS/MS to determine the in vitro plasma half-life (t1/2).

DNMT3A/DNMT3L = molecular target: T2, DNMT3A/DNMT3L (Homo sapiens, UniProt Q9Y6K1); assay: Human MTase screening: DNMT3A/DNMT3L; format: biochemical
T2 construct: purchased BPS Bioscience
Description: as §1, §2, §3

DNMT1 = molecular target: T3, DNMT1 (Homo sapiens, UniProt P26358); assay: Human MTase screening: DNMT1; format: biochemical
T3 construct: purchased BPS Bioscience
Description: as §1, §2, §3

[4] = Liver S9 stability assay, human liver S9; conditions: n = 2, mean±SD
DOT1L = molecular target: T4, DOT1L (Homo sapiens, UniProt Q8TEK3); assay: Human MTase screening: DOT1L; format: biochemical
T4 construct: purchased BPS Bioscience
Description: as §1, §2, §3

[5] = Liver S9 stability assay, mouse liver S9; conditions: n = 2, mean±SD

T3 sequence (P26358 whole entry): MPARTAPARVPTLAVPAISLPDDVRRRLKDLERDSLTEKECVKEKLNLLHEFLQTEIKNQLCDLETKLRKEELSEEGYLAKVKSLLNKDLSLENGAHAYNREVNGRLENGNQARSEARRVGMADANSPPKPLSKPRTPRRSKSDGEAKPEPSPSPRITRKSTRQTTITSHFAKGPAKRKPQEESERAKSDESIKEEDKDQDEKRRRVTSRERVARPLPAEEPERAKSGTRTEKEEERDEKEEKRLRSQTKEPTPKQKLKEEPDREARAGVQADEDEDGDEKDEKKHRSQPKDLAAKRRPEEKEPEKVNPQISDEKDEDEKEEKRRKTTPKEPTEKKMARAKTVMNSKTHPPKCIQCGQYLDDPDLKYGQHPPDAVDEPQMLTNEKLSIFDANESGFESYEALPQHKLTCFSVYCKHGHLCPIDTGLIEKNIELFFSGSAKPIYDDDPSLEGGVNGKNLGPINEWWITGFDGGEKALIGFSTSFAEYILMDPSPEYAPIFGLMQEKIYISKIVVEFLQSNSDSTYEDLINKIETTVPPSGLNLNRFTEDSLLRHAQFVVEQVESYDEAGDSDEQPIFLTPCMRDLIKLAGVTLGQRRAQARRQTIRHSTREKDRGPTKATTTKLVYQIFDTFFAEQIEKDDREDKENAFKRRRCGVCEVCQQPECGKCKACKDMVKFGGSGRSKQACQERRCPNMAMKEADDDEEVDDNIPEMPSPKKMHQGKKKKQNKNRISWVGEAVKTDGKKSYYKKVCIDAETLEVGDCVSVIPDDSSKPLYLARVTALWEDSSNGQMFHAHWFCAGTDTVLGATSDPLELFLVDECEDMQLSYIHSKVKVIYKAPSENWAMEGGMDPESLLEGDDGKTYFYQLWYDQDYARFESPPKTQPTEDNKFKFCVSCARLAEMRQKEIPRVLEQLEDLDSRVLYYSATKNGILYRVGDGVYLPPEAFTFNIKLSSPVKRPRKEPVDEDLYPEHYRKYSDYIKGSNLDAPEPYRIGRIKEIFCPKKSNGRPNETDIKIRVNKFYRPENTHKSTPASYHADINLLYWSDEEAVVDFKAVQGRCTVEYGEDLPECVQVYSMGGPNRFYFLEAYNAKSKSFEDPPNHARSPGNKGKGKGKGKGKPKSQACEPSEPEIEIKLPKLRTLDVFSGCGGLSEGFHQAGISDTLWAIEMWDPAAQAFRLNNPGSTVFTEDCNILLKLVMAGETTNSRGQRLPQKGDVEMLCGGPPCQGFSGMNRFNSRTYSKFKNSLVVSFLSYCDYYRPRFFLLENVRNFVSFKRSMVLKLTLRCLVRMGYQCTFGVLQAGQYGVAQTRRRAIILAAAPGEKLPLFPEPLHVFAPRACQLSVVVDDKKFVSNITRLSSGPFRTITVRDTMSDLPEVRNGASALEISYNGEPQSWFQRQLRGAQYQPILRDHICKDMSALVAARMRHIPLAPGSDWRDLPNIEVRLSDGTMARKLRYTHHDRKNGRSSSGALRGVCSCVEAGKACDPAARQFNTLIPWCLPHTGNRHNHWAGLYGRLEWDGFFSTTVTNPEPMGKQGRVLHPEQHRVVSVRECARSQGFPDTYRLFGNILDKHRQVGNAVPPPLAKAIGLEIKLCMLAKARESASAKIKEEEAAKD
T4 sequence (Q8TEK3 whole entry): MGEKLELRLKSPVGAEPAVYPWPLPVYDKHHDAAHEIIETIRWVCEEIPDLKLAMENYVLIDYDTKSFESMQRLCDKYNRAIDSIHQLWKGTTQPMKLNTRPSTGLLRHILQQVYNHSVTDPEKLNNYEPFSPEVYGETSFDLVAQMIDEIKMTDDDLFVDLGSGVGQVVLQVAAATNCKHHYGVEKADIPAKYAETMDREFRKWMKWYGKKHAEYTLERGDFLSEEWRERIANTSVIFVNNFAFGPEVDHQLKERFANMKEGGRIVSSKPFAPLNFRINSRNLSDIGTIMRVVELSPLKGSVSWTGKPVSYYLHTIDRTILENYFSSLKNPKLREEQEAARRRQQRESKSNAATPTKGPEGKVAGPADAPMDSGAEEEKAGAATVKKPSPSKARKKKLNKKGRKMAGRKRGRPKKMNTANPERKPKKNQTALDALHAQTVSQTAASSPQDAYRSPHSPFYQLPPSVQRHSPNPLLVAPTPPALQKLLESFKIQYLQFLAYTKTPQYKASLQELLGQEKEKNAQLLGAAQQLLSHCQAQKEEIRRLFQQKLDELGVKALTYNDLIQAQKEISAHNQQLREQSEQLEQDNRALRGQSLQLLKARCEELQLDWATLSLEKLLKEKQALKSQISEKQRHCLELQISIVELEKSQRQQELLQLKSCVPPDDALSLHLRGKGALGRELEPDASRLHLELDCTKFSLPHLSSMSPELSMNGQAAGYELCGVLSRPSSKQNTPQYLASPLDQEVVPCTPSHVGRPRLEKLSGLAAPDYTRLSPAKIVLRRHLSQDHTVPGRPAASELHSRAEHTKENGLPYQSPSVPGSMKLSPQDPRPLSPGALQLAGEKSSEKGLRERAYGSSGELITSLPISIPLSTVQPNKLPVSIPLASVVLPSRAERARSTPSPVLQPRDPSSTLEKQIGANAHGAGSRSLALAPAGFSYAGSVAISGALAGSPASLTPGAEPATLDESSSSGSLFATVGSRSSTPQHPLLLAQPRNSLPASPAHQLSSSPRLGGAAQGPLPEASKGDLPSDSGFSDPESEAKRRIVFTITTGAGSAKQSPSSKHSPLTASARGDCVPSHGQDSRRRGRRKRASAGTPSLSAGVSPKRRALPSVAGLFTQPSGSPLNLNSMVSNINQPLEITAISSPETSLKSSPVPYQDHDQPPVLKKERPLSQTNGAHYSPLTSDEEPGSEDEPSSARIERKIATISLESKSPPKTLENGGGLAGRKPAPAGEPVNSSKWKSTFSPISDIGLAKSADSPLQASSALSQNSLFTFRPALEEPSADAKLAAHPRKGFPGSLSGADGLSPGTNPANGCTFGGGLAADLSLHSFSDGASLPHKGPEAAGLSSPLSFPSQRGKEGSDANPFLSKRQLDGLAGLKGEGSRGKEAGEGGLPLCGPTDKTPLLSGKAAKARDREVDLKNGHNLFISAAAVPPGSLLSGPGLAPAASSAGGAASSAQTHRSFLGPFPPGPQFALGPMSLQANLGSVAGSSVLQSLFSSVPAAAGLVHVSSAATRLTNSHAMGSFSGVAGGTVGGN
T2 sequence (Q9Y6K1 whole entry, looked up): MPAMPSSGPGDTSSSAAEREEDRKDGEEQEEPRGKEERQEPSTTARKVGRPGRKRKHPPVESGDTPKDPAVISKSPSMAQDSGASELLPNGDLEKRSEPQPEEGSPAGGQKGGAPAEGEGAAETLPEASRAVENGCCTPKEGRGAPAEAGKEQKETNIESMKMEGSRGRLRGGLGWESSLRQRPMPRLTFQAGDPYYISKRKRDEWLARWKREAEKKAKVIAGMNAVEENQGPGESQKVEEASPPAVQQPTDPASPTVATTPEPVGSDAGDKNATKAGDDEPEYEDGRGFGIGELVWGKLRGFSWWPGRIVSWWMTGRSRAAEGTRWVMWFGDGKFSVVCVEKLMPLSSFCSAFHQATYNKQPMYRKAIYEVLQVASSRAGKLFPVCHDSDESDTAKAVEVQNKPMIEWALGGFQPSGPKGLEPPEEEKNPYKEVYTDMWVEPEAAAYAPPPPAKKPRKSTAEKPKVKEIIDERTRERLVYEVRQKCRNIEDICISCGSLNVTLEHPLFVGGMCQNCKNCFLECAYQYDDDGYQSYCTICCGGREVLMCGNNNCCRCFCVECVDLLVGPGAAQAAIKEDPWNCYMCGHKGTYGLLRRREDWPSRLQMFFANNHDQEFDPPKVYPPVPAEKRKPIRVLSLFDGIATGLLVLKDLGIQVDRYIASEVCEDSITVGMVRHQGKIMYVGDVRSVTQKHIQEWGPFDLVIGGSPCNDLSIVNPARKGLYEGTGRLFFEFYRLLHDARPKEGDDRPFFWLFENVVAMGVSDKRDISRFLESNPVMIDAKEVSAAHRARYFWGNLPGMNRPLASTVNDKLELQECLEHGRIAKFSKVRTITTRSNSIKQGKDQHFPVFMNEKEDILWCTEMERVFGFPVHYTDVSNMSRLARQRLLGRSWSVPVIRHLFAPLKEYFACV
T2 sequence (Q9UJW3 whole entry partner): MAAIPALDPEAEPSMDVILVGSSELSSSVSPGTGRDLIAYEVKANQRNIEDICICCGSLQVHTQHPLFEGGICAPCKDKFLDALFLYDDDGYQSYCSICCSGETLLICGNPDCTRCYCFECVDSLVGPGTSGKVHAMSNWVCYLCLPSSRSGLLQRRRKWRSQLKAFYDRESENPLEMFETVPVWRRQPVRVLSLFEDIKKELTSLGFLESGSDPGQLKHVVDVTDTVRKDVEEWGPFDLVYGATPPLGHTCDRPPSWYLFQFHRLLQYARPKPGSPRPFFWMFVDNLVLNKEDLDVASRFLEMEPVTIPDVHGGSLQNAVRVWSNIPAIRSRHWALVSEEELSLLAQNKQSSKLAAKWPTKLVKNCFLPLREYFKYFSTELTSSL
T1 sequence (O60678 whole entry): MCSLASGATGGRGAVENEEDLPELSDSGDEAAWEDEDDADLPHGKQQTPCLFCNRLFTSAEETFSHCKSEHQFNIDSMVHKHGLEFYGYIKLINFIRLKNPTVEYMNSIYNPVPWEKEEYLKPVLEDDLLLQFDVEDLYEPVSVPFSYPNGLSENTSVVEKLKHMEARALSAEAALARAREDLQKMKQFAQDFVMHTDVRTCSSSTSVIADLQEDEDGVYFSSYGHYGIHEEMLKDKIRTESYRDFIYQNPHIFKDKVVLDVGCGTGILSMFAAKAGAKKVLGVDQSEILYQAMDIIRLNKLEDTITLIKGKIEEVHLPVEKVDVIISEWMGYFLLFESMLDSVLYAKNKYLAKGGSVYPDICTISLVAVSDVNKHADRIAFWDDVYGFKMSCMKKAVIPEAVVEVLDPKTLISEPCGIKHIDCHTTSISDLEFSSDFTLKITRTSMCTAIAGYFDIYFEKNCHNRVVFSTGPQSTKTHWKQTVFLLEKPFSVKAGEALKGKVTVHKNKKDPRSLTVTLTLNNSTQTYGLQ

Nc1ncnc2c1ncn2[C@@H]1O[C@H](CNS(=O)(=O)c2ccc3ccccc3c2)[C@@H](O)[C@H]1O [Compound 3, N-(((2R,3S,4R,5R)-5-(6-Amino-9H-purin-9-yl)-3,4-dihydroxytetrahydrofuran-2-yl)methyl)naphthalene-2-sulfonamide]
passive diffusion rate in PAMPA ([1]; PAMPA): equally low | PAMPA Permeability Pe ([1]; n = 6, mean±SD, 25° C., 5 h): 0.2 ± 0.1 10^−6 cm/s | EC50: NA (not active) [2]: NA^a (NA, not active, <15% inhibition at 50 μM.) | CC50: NT (nontoxic) (A549/ACE2/TMPRSS2 cells): NT^b (NT, nontoxic, >95% cell viability at 50 μM;) | inhibition at 10 µM (PRMT3): 0% | stability in human liver S9 fractions: resistant to phase I and II transformations | Plasma Stability t1/2, Mouse ([3]; mouse plasma, 37° C., n = 3): >24^d h | stability in mouse plasma ([3]; mouse, plasma): remarkably stable | inhibition at 10 µM (DNMT3A/DNMT3L): 4% | inhibition at 10 µM (DNMT1): 5% | Human Liver S9 Stability t1/2, Phase I ([4]; cofactor NADPH): 11.2 ± 2.27 h | Human Liver S9 Stability t1/2, Phase II ([4]; cofactor UDPGA): >45^e min | inhibition at 10 µM (DOT1L): 10% | Mouse Liver S9 Stability t1/2, Phase I ([5]; cofactor NADPH): 4.55 ± 0.383 h | Mouse Liver S9 Stability t1/2, Phase II ([5]; cofactor UDPGA): >45^e min
